pEC50, pIC50: −log10 of the molar value.
Key:
[1] = in vitro; conditions: human, MT4 cells
Description: Selectivity index, ratio of CC50 for cytotoxicity against human MT4 cells to EC50 for antiviral activity against NNRTI-resistant HIV-1 harboring E138K mutant infected in human MT4 cells

[2] = tested on: Human immunodeficiency virus 1; type: functional, organism-based; conditions: Human immunodeficiency virus 1, MT4, 120 h
[3] = tested on: Human immunodeficiency virus 1; test: microbe, parasite or virus in culture; conditions: Human immunodeficiency virus 1, IIIB, MT4, 120 h
Description: Antiviral activity against wild type HIV-1 IIIB infected in human MT4 cells assessed as protection against virus-induced cytopathic effect incubated for 5 days by MTT assay

[4] = tested on: Human immunodeficiency virus 1; test: Antiviral activity against NNRTI-resistant HIV-1 harboring F227L and V106A double mutant infected in human MT4 cells assessed as protection against virus-induced cytopathic effect incubated for 5 days by MTT assay; type: functional, organism-based; conditions: Human immunodeficiency virus 1, MT4, 120 h
[5] = molecular target: Human immunodeficiency virus type 1 reverse transcriptase (Human immunodeficiency virus 1, UniProt Q72547); test: Inhibition of HIV-1 reverse transcriptase assessed as assessed as reduction of biotin-dUTP incorporation into […] incubated for 1 hrs by ELISA analysis
[6] = tested on: Human immunodeficiency virus 1; test: Antiviral activity against NNRTI-resistant HIV-1 harboring K103N mutant infected in human MT4 cells assessed as protection against virus-induced cytopathic effect incubated for 5 days by MTT assay; type: functional, organism-based; conditions: Human immunodeficiency virus 1, MT4, 120 h
[7] = in vitro; conditions: human, MT4 cells; remark: listed apart in the source
Description: Selectivity index, ratio of CC50 for cytotoxicity against human MT4 cells to EC50 for antiviral activity against NNRTI-resistant HIV-1 harboring Y188L mutant infected in human MT4 cells

[8] = tested on: Human immunodeficiency virus 1; test: Antiviral activity against NNRTI-resistant HIV-1 harboring E138K mutant infected in human MT4 cells assessed as protection against virus-induced cytopathic effect incubated for 5 days by MTT assay; type: functional, organism-based; conditions: Human immunodeficiency virus 1, MT4, 120 h
[9] = tested on: Human immunodeficiency virus 1; test: Antiviral activity against NNRTI-resistant HIV-1 harboring L100I mutant infected in human MT4 cells assessed as protection against virus-induced cytopathic effect incubated for 5 days by MTT assay; type: functional, organism-based; conditions: Human immunodeficiency virus 1, MT4, 120 h
[10] = in vitro; conditions: human, MT4 cells; remark: listed apart in the source
Description: Selectivity index, ratio of CC50 for cytotoxicity against human MT4 cells to EC50 for antiviral activity against wildtype HIV-1 IIIB infected in human MT4 cells

[11] = in vitro; conditions: human, MT4 cells; remark: listed apart in the source
Description: Selectivity index, ratio of CC50 for cytotoxicity against human MT4 cells to EC50 for antiviral activity against NNRTI-resistant HIV-1 harboring L100I mutant infected in human MT4 cells

[12] = in vitro; conditions: human, MT4 cells; remark: listed apart in the source
Description: Selectivity index, ratio of CC50 for cytotoxicity against human MT4 cells to EC50 for antiviral activity against NNRTI-resistant HIV-1 harboring K103N and Y181C mutant infected in human MT4 cells

[13] = in vitro; conditions: human, MT4 cells; remark: listed apart in the source
Description: Selectivity index, ratio of CC50 for cytotoxicity against human MT4 cells to EC50 for antiviral activity against NNRTI-resistant HIV-1 harboring K103N mutant infected in human MT4 cells

[14] = in vitro; conditions: human, MT4 cells; remark: listed apart in the source
Description: Selectivity index, ratio of CC50 for cytotoxicity against human MT4 cells to EC50 for antiviral activity against NNRTI-resistant HIV-1 harboring F227L and V106A mutant infected in human MT4 cells

[15] = Cytotoxicity against human MT4 cells assessed as reduction in cell viability incubated for 5 days by MTT assay; type: toxicity, cell-based; conditions: time 5 day
[16] = in vitro; conditions: human, MT4 cells; remark: listed apart in the source
Description: Selectivity index, ratio of CC50 for cytotoxicity against human MT4 cells to EC50 for antiviral activity against NNRTI-resistant HIV-1 harboring Y181C mutant infected in human MT4 cells

[17] = tested on: Human immunodeficiency virus 1; type: functional, organism-based; conditions: Human immunodeficiency virus 1, MT4, 120 h; remark: listed apart in the source
[18] = tested on: Human immunodeficiency virus 1; type: functional, organism-based; conditions: Human immunodeficiency virus 1, MT4, 120 h; remark: listed apart in the source
[19] = tested on: Human immunodeficiency virus 1; test: Potency index, ratio of efavirenz EC50 to test compound EC50 for antiviral activity against NNRTI-resistant HIV-1 harboring K103N mutant infected in human MT4 cells assessed as protection against virus-induced cytopathic effect incubated for 5 days by MTT assay; type: functional; conditions: time 5 day
[20] = Metabolic stability in human plasma assessed as compound remaining incubated for 120 mins by LC-MS/MS analysis; type: ADME, cell-free; conditions: read-out: Stability
[21] = Metabolic stability in human liver assessed as intrinsic clearance incubated for 60 mins in the presence of NADPH by LC-MS/MS analysis; type: ADME, tissue-based; conditions: read-out: CLH
[22] = Water solubility of the compound in phosphate buffer at pH 7.4; conditions: phosphate buffer
[23] = Metabolic stability in human liver microsomes assessed as half-life incubated for 60 mins in the presence of NADPH by LC-MS/MS analysis; type: ADME, Microsome; conditions: liver microsomes
[24] = Metabolic stability in human liver microsomes assessed as intrinsic clearance incubated for 60 mins in the presence of NADPH by LC-MS/MS analysis; conditions: liver microsomes
[25] = Metabolic stability in human plasma assessed as half-life incubated for 120 mins by LC-MS/MS analysis; type: ADME, cell-free
[26] = Water solubility of the compound in phosphate buffer at pH 7.0
[27] = Metabolic stability in human liver microsomes assessed as compound remaining measured after 60 mins in the presence of NADPH by LC-MS/MS analysis; type: ADME, Microsome; conditions: liver microsomes, read-out: Stability

Cc1cc(C#N)cc(C)c1Oc1nc(Nc2ccc(C#N)cc2)nc2c1CN(Cc1ccc(C(N)=O)cc1)CC2
selectivity ratio [1]: 7560
pEC50 [2]: 7.47
pEC50 [3]: 8.17
pEC50 [4]: 6.95
pIC50 [5]: 6.91
pEC50 [6]: 8.11
selectivity ratio [7]: 5550
pEC50 [8]: 7.87
pEC50 [9]: 7.17
selectivity ratio [10]: 15100
selectivity ratio [11]: 1510
selectivity ratio [12]: 1180
selectivity ratio [13]: 12900
selectivity ratio [14]: 914
CC50 at 120 h [15]: 101000 nM
selectivity ratio [16]: 2960
pEC50 [17]: 7.07
pEC50 [18]: 6.74
Ratio EC50 [19]: 17

Cc1cc(C#N)cc(C)c1Oc1nc(Nc2ccc(C#N)cc2)nc(N)c1Br [ETRAVIRINE]
remaining at 2 h [20]: 83.2%
CLint scaled [21]: 19 mL/min/kg
pEC50 [6]: 8.40
solubility [22]: < 1 µg/mL
half-life [23]: 1.09 h
microsomal CLint at 1 h [24]: 21.2 µL/min/mg
CC50 at 120 h [15]: > 4610 nM
half-life [25]: > 4.82 h
solubility [26]: < 1 µg/mL
pEC50 [17]: 7.18
pEC50 [18]: 7.49
remaining at 1 h [27]: 50.2%

From ChEMBL document CHEMBL5331107 (J Med Chem, 2023)
